Columns and labels:
[1] = tested on: human prostate cancer cells; test: Cell viability/proliferation of human prostate cancer cells vs various anti-cancer agents (FIG. 9); format: cell-based
Source text: The anti-cancer compositions described herein can be used to treat any cancer having increased glycolysis; the metabolic phenotype referred to as the “Warburg Effect”, as described above. In another embodiment, the anti-cancer compositions can be used to treat any cancer that can be detected by Positron Emission Tomography (PET), which detects this metabolic phenotype. For example, FIG. 5 illustrates a reaction scheme for PET scanning. Human cancer cell lines that the present anti-cancer composition has shown to be effective against include liver, cervical, ovarian, lung, breast, colon, neuroblastoma, medulloblastoma, prostate, skin, pancreatic, childhood fibrolamellar hepatocellular carcinoma (FHCC), hepatocellular carcinoma (HCC), non small cell lung cancer. For example, FIG. 9 depicts a bar graph showing various cancer drugs effects on human prostate cancer cells. […] As such, the present cancers that can be treated with the present anti-cancer compositions can be selected from the group consisting of liver, cervical, ovarian, lung, breast, colon, neuroblastoma, medulloblastoma, prostate, skin, pancreatic, childhood fibrolamellar hepatocellular carcinoma (FHCC), hepatocellular carcinoma (HCC), non small cell lung cancer. […]

[2] = tested on: liver cancer cells; test: Photographs of liver cancer cells treated with 3BP (FIG. 2); format: cell-based
Source text: The presently disclosed cellular energy inhibitors, shown as 3-bromopyruvate (3BP) (a lactic acid analog) in FIG. 1, are small chemicals and can mimic the lactic acid chemical structure; depicted as a small diamond in FIG. 1. Therefore, cellular energy inhibitors disguised as lactic acid can “trick” the cancer cells and enter like a Trojan horse (FIG. 1). The inhibitors have little effect on normal cells as these contain very few lactic acid transporters. Because of the present cellular energy inhibitors' highly reactive nature, it can destroy the two energy production factories (FIG. 1; one diamond above the hexokinase (HK), shown as 3BP is destroying one energy production factory, i.e., glycolysis, and another red diamond inside the mitochondrion means that 3BP is destroying also this energy production factory). As a result, the cellular energy (ATP) can be depleted very rapidly by cellular energy inhibitors; 3BP in FIG. 1, attack the two factories at the same time causing the cancer cells to rapidly explode (cell membrane rupturing). […] Here, the healthy cancer cells are round and iridescent (left picture).

[3] = tested on: metastatic lung tumors; test: Metastatic lung cancer study in rabbits, IP port delivery (FIG. 4); details: dissected lungs
[4] = tested on: Hepatocellular carcinoma cells; test: Rat hepatocellular carcinoma study: cancer cell viability vs μM of anti-cancer agents (FIG. 3); details: 23 hour period; 3-bromopyruvate with as little as 20 μM

With `O=C(O)C(=O)CBr` [3-Bromopyruvate, 3-bromopyruvate] the “stopping cancer cell proliferation vs other known chemo-agents” value [1] was “better than other known chemo-agents in stopping cancer cell proliferation”, the “cell morphology / death after treatment” value [2] was “the cell membranes rupture” and the “metastatic lung cancer after treatment” value [3] was “no metastatic lung cancer”. The cell viability [4] was “approx. 5%”.

— patent US11077078B2, “Compositions and methods for the treatment of cancer” (KoDiscovery, LLC, priority 2006, dated 2021)
